These results are taken from article PMC9853328, “Potent Platinum(IV) Prodrugs That Incorporate a Biotin Moiety to Selectively Target Cancer Cells” (Pharmaceutics, 2022).

One assay concerns A431 skin cancer cells.
Experiment: not given
The arrangement: method as in earlier work. The note with it: MTT, same method, taken from the literature; ref [18],[46],[47]; read-out: GI50 ± SEM, A431; cited from earlier work.
As to `N.N.[Cl][Pt][Cl]` [Cisplatin, cisplatin], the concentration for 50% growth inhibition (GI50) was 2400 ± 300 nM.
In the case of `[Cl-].[Cl-].c1cc2ccc3ccc[n+]4c3c2[n+](c1)[Pt-2]41[NH2+][C@H]2CCCC[C@@H]2[NH2+]1` [PHENSS(II)], the 50% growth inhibitory concentration (GI50) was 340 ± 100 nM.
`O=[N+]([O-])[O-].O=[N+]([O-])[O-].[OH][Pt-2]12([OH])([NH2+][C@H]3CCCC[C@@H]3[NH2+]1)[n+]1cccc3ccc4ccc[n+]2c4c31` [PHENSS(IV)]: the 50% growth inhibitory concentration (GI50) is 4300 ± 530 nM.

The test system of the next assay is ADDP (subclone of A2780) versus A2780 ovarian cancer cell lines. In words: Resistance factor, GI50 in ADDP/GI50 in A2780. The format is cell-based.
Conditions: not given
Regarding `N.N.[Cl][Pt][Cl]` [Cisplatin, cisplatin], the “Resistance factor (RF)” value is 28.00.
Take `[Cl-].[Cl-].c1cc2ccc3ccc[n+]4c3c2[n+](c1)[Pt-2]41[NH2+][C@H]2CCCC[C@@H]2[NH2+]1` [PHENSS(II)]: the “Resistance factor (RF)” value is given as 0.793.
The same measure, in the same setting: as for `O=[N+]([O-])[O-].O=[N+]([O-])[O-].[OH][Pt-2]12([OH])([NH2+][C@H]3CCCC[C@@H]3[NH2+]1)[n+]1cccc3ccc4ccc[n+]2c4c31` [PHENSS(IV)], the figure is 1.625.

Still in this assay, the particulars now being: listed as cisplatin.
For `N.N.[Cl][Pt][Cl]` [Cisplatin, cisplatin], the “Resistance factor (RF)” value came to 28.

A further assay deals with MCF-7 breast cancer cells.
Experiment: not given
The arrangement: method as in earlier work. The note with it: MTT, same method, taken from the literature; ref [18],[46],[47]; read-out: GI50 ± SEM, MCF-7; cited from earlier work.
Consider `N.N.[Cl][Pt][Cl]` [Cisplatin, cisplatin], for which the GI50 is 6500 ± 800 nM.
As for `[Cl-].[Cl-].c1cc2ccc3ccc[n+]4c3c2[n+](c1)[Pt-2]41[NH2+][C@H]2CCCC[C@@H]2[NH2+]1` [PHENSS(II)], the 50% growth inhibitory concentration (GI50) was 250 ± 41 nM.
Regarding `O=[N+]([O-])[O-].O=[N+]([O-])[O-].[OH][Pt-2]12([OH])([NH2+][C@H]3CCCC[C@@H]3[NH2+]1)[n+]1cccc3ccc4ccc[n+]2c4c31` [PHENSS(IV)], the GI50 was 16000 ± 4500 nM.

In another assay the test system is cisplatin-resistant ADDP ovarian (subclone of A2780) cancer cells.
Experiment: not given
On the set-up: method as in earlier work. The note with it: MTT, same method, taken from the literature; ref [18],[46],[47]; read-out: GI50 ± SEM, ADDP; cited from earlier work.
Consider `N.N.[Cl][Pt][Cl]` [Cisplatin, cisplatin], for which the GI50 was 28000 ± 1700 nM.
With `[Cl-].[Cl-].c1cc2ccc3ccc[n+]4c3c2[n+](c1)[Pt-2]41[NH2+][C@H]2CCCC[C@@H]2[NH2+]1` [PHENSS(II)], the concentration for 50% growth inhibition (GI50) was 230 ± 49 nM.
In the case of `O=[N+]([O-])[O-].O=[N+]([O-])[O-].[OH][Pt-2]12([OH])([NH2+][C@H]3CCCC[C@@H]3[NH2+]1)[n+]1cccc3ccc4ccc[n+]2c4c31` [PHENSS(IV)], the concentration for 50% growth inhibition (GI50) was 1300 ± 350 nM.

The test system of another assay is A2780 ovarian cancer cells.
Experiment: not given
The arrangement: method as in earlier work. The note with it: MTT, same method, taken from the literature; ref [18],[46],[47]; read-out: GI50 ± SEM, A2780; cited from earlier work.
Regarding `N.N.[Cl][Pt][Cl]` [Cisplatin, cisplatin], the 50% growth inhibitory concentration (GI50) is 1000 ± 100 nM.
For the molecule `[Cl-].[Cl-].c1cc2ccc3ccc[n+]4c3c2[n+](c1)[Pt-2]41[NH2+][C@H]2CCCC[C@@H]2[NH2+]1` [PHENSS(II)], the concentration for 50% growth inhibition (GI50) was 290 ± 37 nM.
Regarding `O=[N+]([O-])[O-].O=[N+]([O-])[O-].[OH][Pt-2]12([OH])([NH2+][C@H]3CCCC[C@@H]3[NH2+]1)[n+]1cccc3ccc4ccc[n+]2c4c31` [PHENSS(IV)], the concentration for 50% growth inhibition (GI50) was 800 ± 84 nM.

For a further assay, the system named is non-cancerous MCF10A breast cell line.
Experiment: not given
On the set-up: method as in earlier work. The note with it: MTT, same method, taken from the literature; ref [18],[46],[47]; read-out: GI50 ± SEM, MCF10A; cited from earlier work.
Take `N.N.[Cl][Pt][Cl]` [Cisplatin, cisplatin]: the concentration for 50% growth inhibition (GI50) is 5200 ± 520 nM.
`[Cl-].[Cl-].c1cc2ccc3ccc[n+]4c3c2[n+](c1)[Pt-2]41[NH2+][C@H]2CCCC[C@@H]2[NH2+]1` [PHENSS(II)]: the concentration for 50% growth inhibition (GI50) is 240 ± 60 nM.
`O=[N+]([O-])[O-].O=[N+]([O-])[O-].[OH][Pt-2]12([OH])([NH2+][C@H]3CCCC[C@@H]3[NH2+]1)[n+]1cccc3ccc4ccc[n+]2c4c31` [PHENSS(IV)]: the GI50 was 1700 ± 200 nM.

Another assay has as its system MIA pancreas cancer cells.
Experiment: not given
On the set-up: method as in earlier work. The note with it: MTT, same method, taken from the literature; ref [18],[46],[47]; read-out: GI50 ± SEM, MIA; cited from earlier work.
As for `N.N.[Cl][Pt][Cl]` [Cisplatin, cisplatin], the GI50 was 7500 ± 1300 nM.
Take `[Cl-].[Cl-].c1cc2ccc3ccc[n+]4c3c2[n+](c1)[Pt-2]41[NH2+][C@H]2CCCC[C@@H]2[NH2+]1` [PHENSS(II)]: the 50% growth inhibitory concentration (GI50) is 240 ± 22 nM.
Consider `O=[N+]([O-])[O-].O=[N+]([O-])[O-].[OH][Pt-2]12([OH])([NH2+][C@H]3CCCC[C@@H]3[NH2+]1)[n+]1cccc3ccc4ccc[n+]2c4c31` [PHENSS(IV)], for which the 50% growth inhibitory concentration (GI50) is 3400 ± 2200 nM.

The next assay has as its system H460 lung cancer cells.
Experiment: not given
The arrangement: method as in earlier work. The note with it: MTT, same method, taken from the literature; ref [18],[46],[47]; read-out: GI50 ± SEM, H460; cited from earlier work.
Regarding `N.N.[Cl][Pt][Cl]` [Cisplatin, cisplatin], the concentration for 50% growth inhibition (GI50) was 900 ± 200 nM.
With `[Cl-].[Cl-].c1cc2ccc3ccc[n+]4c3c2[n+](c1)[Pt-2]41[NH2+][C@H]2CCCC[C@@H]2[NH2+]1` [PHENSS(II)], the GI50 is 300 ± 32 nM.
For the molecule `O=[N+]([O-])[O-].O=[N+]([O-])[O-].[OH][Pt-2]12([OH])([NH2+][C@H]3CCCC[C@@H]3[NH2+]1)[n+]1cccc3ccc4ccc[n+]2c4c31` [PHENSS(IV)], the 50% growth inhibitory concentration (GI50) is 1700 ± 200 nM.

For another assay, the system named is SJ-G2 glioblastoma cells.
Experiment: not given
On the set-up: method as in earlier work. The note with it: MTT, same method, taken from the literature; ref [18],[46],[47]; read-out: GI50 ± SEM, SJ-G2; cited from earlier work.
Take `N.N.[Cl][Pt][Cl]` [Cisplatin, cisplatin]: the concentration for 50% growth inhibition (GI50) was 400 ± 100 nM.
For the molecule `[Cl-].[Cl-].c1cc2ccc3ccc[n+]4c3c2[n+](c1)[Pt-2]41[NH2+][C@H]2CCCC[C@@H]2[NH2+]1` [PHENSS(II)], the GI50 was 440 ± 55 nM.
Regarding `O=[N+]([O-])[O-].O=[N+]([O-])[O-].[OH][Pt-2]12([OH])([NH2+][C@H]3CCCC[C@@H]3[NH2+]1)[n+]1cccc3ccc4ccc[n+]2c4c31` [PHENSS(IV)], the GI50 is 1700 ± 350 nM.

In a further assay the test system is HT29 colon cancer cells.
Experiment: not given
On the set-up: method as in earlier work. The note with it: MTT, same method, taken from the literature; ref [18],[46],[47]; read-out: GI50 ± SEM, HT29; cited from earlier work.
`N.N.[Cl][Pt][Cl]` [Cisplatin, cisplatin]: the GI50 was 11300 ± 1900 nM.
Regarding `[Cl-].[Cl-].c1cc2ccc3ccc[n+]4c3c2[n+](c1)[Pt-2]41[NH2+][C@H]2CCCC[C@@H]2[NH2+]1` [PHENSS(II)], the GI50 was 87 ± 27 nM.
Turning to `O=[N+]([O-])[O-].O=[N+]([O-])[O-].[OH][Pt-2]12([OH])([NH2+][C@H]3CCCC[C@@H]3[NH2+]1)[n+]1cccc3ccc4ccc[n+]2c4c31` [PHENSS(IV)], the GI50 was 710 ± 300 nM.

For another assay, the system named is Du145 prostate cancer cells.
Experiment: not given
On the set-up: method as in earlier work. The note with it: MTT, same method, taken from the literature; ref [18],[46],[47]; read-out: GI50 ± SEM, Du145; cited from earlier work.
Take `N.N.[Cl][Pt][Cl]` [Cisplatin, cisplatin]: the GI50 was 1200 ± 100 nM.
Consider `[Cl-].[Cl-].c1cc2ccc3ccc[n+]4c3c2[n+](c1)[Pt-2]41[NH2+][C@H]2CCCC[C@@H]2[NH2+]1` [PHENSS(II)], for which the GI50 is 110 ± 27 nM.
Turning to `O=[N+]([O-])[O-].O=[N+]([O-])[O-].[OH][Pt-2]12([OH])([NH2+][C@H]3CCCC[C@@H]3[NH2+]1)[n+]1cccc3ccc4ccc[n+]2c4c31` [PHENSS(IV)], the concentration for 50% growth inhibition (GI50) is 310 ± 92 nM.

Another assay deals with BE2-C neuroblastoma cells.
Experiment: not given
The note with it: MTT, same method, taken from the literature; ref [18],[46],[47]; read-out: GI50 ± SEM, BE2-C; cited from earlier work. The arrangement: method as in earlier work.
As for `N.N.[Cl][Pt][Cl]` [Cisplatin, cisplatin], the GI50 is 1900 ± 200 nM.
Regarding `[Cl-].[Cl-].c1cc2ccc3ccc[n+]4c3c2[n+](c1)[Pt-2]41[NH2+][C@H]2CCCC[C@@H]2[NH2+]1` [PHENSS(II)], the GI50 is 390 ± 60 nM.
Regarding `O=[N+]([O-])[O-].O=[N+]([O-])[O-].[OH][Pt-2]12([OH])([NH2+][C@H]3CCCC[C@@H]3[NH2+]1)[n+]1cccc3ccc4ccc[n+]2c4c31` [PHENSS(IV)], the GI50 is 3000 ± 530 nM.

Another assay has as its system U87 glioblastoma cells.
Experiment: not given
The arrangement: method as in earlier work. The note with it: MTT, same method, taken from the literature; ref [18],[46],[47]; read-out: GI50 ± SEM, U87; cited from earlier work.
Consider `N.N.[Cl][Pt][Cl]` [Cisplatin, cisplatin], for which the 50% growth inhibitory concentration (GI50) was 3800 ± 1100 nM.
As to `[Cl-].[Cl-].c1cc2ccc3ccc[n+]4c3c2[n+](c1)[Pt-2]41[NH2+][C@H]2CCCC[C@@H]2[NH2+]1` [PHENSS(II)], the GI50 was 1200 ± 340 nM.
For `O=[N+]([O-])[O-].O=[N+]([O-])[O-].[OH][Pt-2]12([OH])([NH2+][C@H]3CCCC[C@@H]3[NH2+]1)[n+]1cccc3ccc4ccc[n+]2c4c31` [PHENSS(IV)], the concentration for 50% growth inhibition (GI50) is 4900 ± 610 nM.
